Experimental data as given in patent publication US20240316132A1 (priority 2023, published 2024).
≈ marks a conversion by molar mass, not a printed value.

Experiments:
[1] = Solubility in water; format: physicochemical
[2] = Solubility in DMDA / Met10u high-KB amide surfactant; format: physicochemical
[3] = Solubility in mineral oil; format: physicochemical; details: oil or lipid, under certain conditions
[4] = Thermal stability (decarboxylation of CBDA to CBD); format: physicochemical; details: saturated solution of CBDA in Met10u
[5] = cited from earlier work

In the case of `C=C(C)[C@@H]1CCC(C)=C[C@H]1c1c(O)cc(CCCCC)c(C(=O)O)c1O` [CBDA, Δ(9)-tetrahydrocannabidiolic acid], the “solubility of CBDA in water” value ([1]; temperature of 4 degrees Celsius or lower, pH 4 or lower) is reported as “below 20 micrograms per milliliter”, the “solubility of CBDA in water” value ([1]; temperature of 70 degrees Celsius or higher, pH of 10 or higher) is reported as “over 20 milligrams per milliliter” and the solubility ([2]; DMDA (high-KB amide surfactant), organic solvent or mixture, at 70 C) is reported as greater than 1000 mg/mL. The “solubility of CBDA in Met10u” value ([2]; at 0 C) was 1%, the “solubility of CBDA in Met10u” value ([2]; at 60 C) was 100% and the solubility [3] was roughly 6 mg/mL (≈ 16.7 mM). For the same compound, the “temperature at which CBDA begins to lose its carboxylic moiety (decarboxylation) and become CBD” value [4] was “at least 130 C”.

For `CCCCC/C=C\C/C=C\CCCCCCCC(=O)O` [Linoleic acid, linoleic acid], the pKa [5] is given as 9.24.
